Data on 37 compounds can be found in patent publication US8344181B2, “N-2 adamantanyl-2-phenoxy-acetamide derivatives as 11-beta hydroxysteroid dehydrogenase inhibitors” (Janssen Pharmaceutica N.V., priority 2004, dated 2013).

The target in assay [1] is T1, 11β-HSD1 (Mus musculus, UniProt P50172).
T1 construct: endogenous in cells; host or cells: 3T3-L1 (ATCC-CL-173), differentiated into adipocytes
Briefly: Cellular assay of 11β-HSD1 activity in differentiated 3T3-L1 cells. The class given is cell-based. The following applies: 4 hour pre-incubation, 10^-5M to 10^-10M, read-out: HSD1 cellular 3T3-L1 Score. How it is done:
The effects on 11β-HSD1 activity was measured in differentiated 3T3-L1 cells and rat hepatocytes.
Mouse fibroblast 3T3-L1 cells (ATCC-CL-173) were seeded at a density of 16500 cells/ml in 12 well plates and grown for 7 days in DMEM medium (supplemented with 10% heat inactivated foetal calf serum, 2 mM glutamine and 25 mg gentamycin) at 37° C. in a humidified 5% CO2 atmosphere. Medium was refreshed twice a week. Fibroblasts were differentiated into adipocytes at 37° C. in a 5% CO2 humidified atmosphere in growth medium containing 2 μg/ml insulin, 55 μg/ml IBMX and 39.2 μg/ml dexamethasone.
Primary hepatocytes from male rats were seeded on normal Falcon 12 well plates at a density of 250000 cells/well and incubated for 16 hours at 37° C. in a 5% CO2 humidified atmosphere in DMEM-HAM's F12 medium containing 5% Nu-serum, 100 U/ml penicillin, 100 μg/ml streptomycin, 0.25 μg/ml amphotericin B, 50 μg/ml gentamycin sulfate, 5 μg/ml insulin and 392 ng/ml dexamethasone. Following a 4 hour pre-incubation with test compound, 0.5 μCi ^3H-cortisone or dehydrocorticosterone, was added to the 3T3-L1 cultures. One hour later, the medium was extracted on Extrelut^3-columns with 15 ml diethyl ether and the extract was analysed by HPLC as described above. The effects of JNJ-compounds on rat hepatocyte HSD1 activity was measured after an incubation period of 90 minutes with 0.5 μCi^3H-dehydrocorticosterone. Corticosterone formation was analysed by HPLC.
(§1) As for the enzymatic assays, the compounds to be tested were taken from a stock solution and tested at a final concentration ranging from 10^−5M to 10^−10M. From the thus obtained dose response curves, the pIC50 value was calculated and scored as follows; Score 1=pIC50 value<5, Score 2=pIC50 value in the range of 5 to 6, Score 3=pIC50 value>6. (in this table NT stands for Not Tested).

For assay [2], the target named is T2, 11β-HSD2 (Homo sapiens, UniProt P80365).
T2 construct: endogenous in cells; host or cells: HepG2 (ATCC HB-8065)
T2 sequence (P80365 1-405): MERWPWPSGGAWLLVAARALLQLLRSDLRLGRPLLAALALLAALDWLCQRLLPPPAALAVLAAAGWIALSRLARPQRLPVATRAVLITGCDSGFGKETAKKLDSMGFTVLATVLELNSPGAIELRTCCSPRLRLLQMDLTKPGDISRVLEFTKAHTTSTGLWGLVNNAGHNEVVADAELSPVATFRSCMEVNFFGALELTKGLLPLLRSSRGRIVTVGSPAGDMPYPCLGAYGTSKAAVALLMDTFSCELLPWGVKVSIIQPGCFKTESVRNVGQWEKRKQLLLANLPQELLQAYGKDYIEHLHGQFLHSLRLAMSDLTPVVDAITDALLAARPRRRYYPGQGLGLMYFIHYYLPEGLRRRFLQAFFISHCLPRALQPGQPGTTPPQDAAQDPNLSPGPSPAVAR
The assay can be described thus: Cellular assay of 11β-HSD2 activity in HepG2 cells. The class given is cell-based. The conditions noted are these: 4 hour pre-incubation, 10^-5M to 10^-10M, read-out: HSD2 cellular HepG2 Score. As for the experimental part: The effects on 11β-HSD2 activity was studied in HepG2 and LCC-PK1-cells HepG2-cells (ATCC HB-8065) were seeded in 12 well plates at a density of 100,000 cells/ml and grown at 37° C. in a humidified 5% CO2 atmosphere in MEM-Rega-3 medium supplemented with 10% heat inactivated foetal calf serum, 2 mM L-glutamine and sodium bicarbonate). Medium was refreshed twice a week.
Following a 4 hour pre-incubation with test compound, 0.5 μCi ^3H-cortisol or corticosterone, was added to the cultures. One hour later, the medium was extracted on Extrelut^3-columns with 15 ml diethyl ether and the extract was analysed by HPLC as described above.
as §1

T1 sequence (P50172 whole entry): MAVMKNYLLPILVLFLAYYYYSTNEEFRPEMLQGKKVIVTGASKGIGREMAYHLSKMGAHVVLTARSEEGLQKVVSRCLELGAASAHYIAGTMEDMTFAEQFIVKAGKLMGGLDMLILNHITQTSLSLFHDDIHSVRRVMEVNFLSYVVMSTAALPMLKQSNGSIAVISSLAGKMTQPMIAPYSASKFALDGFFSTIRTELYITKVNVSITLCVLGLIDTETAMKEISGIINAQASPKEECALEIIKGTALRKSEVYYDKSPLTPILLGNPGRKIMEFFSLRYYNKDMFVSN

`COc1cccc(NC(C)(C)C(=O)N[C@H]2[C@@H]3CC4C[C@H]2C[C@](O)(C4)C3)c1` [Compound 53]: the figures for the IC50 in assay [1] and in assay [2] were below 1000 nM and above 10000 nM, respectively.

Consider `CC(=O)N[C@@]12CC3C[C@H](C1)[C@H](NC(=O)C(C)(C)Oc1ccc(Cl)cc1C)[C@@H](C3)C2` [Compound 29], for which the IC50 in assay [1] and in assay [2] was below 1000 nM throughout.

With `CC(C)(Nc1ccccc1)C(=O)N[C@H]1[C@@H]2CC3C[C@H]1C[C@](F)(C3)C2` [Compound 68], the figures for the IC50 in assay [1] and in assay [2] were below 1000 nM and above 10000 nM, respectively.

With `CC(C)(Oc1cccc(Cl)c1)C(=O)N[C@H]1[C@@H]2CC3C[C@H]1C[C@](N)(C3)C2` [Compound 85], the IC50 in assay [1] is below 1000 nM; in assay [2], above 10000 nM.

As for `CC(C)(Oc1ccc(Cl)cc1)C(=O)N[C@H]1[C@@H]2CC3C[C@H]1C[C@](N)(C3)C2` [Compound 95], the IC50 in assay [1] is below 1000 nM; in assay [2] it was above 10000 nM.

With `CC(C)(Oc1ccc(Cl)cc1)C(=O)N[C@H]1[C@@H]2CC3C[C@H]1C[C@](O)(C3)C2` [Compound 67], the IC50 in assay [1] is below 1000 nM; in assay [2], 1000 to 10000 nM.

With `Cc1ccccc1NC(C)(C)C(=O)N[C@H]1[C@@H]2CC3C[C@H]1C[C@](O)(C3)C2` [Compound 34], the IC50 in assay [1] was below 1000 nM; in assay [2], 1000 to 10000 nM.

Regarding `Cc1c(C)c2c(c(C)c1O)CCC(C)(C(=O)N[C@H]1[C@@H]3CC4C[C@H]1C[C@](O)(C4)C3)O2` (some centres unmarked) [Compound 28], the IC50 in assay [1] and in assay [2] was below 1000 nM each time.

As to `Cc1cc(Cl)ccc1OC(C)(C)C(=O)N[C@H]1[C@@H]2CC3C[C@H]1C[C@](C(=O)O)(C3)C2` [Compound 50], the values for the IC50 in assay [1] and in assay [2] were below 1000 nM and 1000 to 10000 nM, respectively.

Take `O=C(N[C@H]1[C@@H]2CC3C[C@H]1C[C@](O)(C3)C2)[C@H]1CCc2cc(F)ccc2O1` [Compound 21]: the IC50 in assay [1] and in assay [2] was below 1000 nM each time.

In the case of `Cc1ccccc1NC(C)(C)C(=O)N[C@H]1[C@@H]2CC3C[C@H]1C[C@](F)(C3)C2` [Compound 35], the IC50 in assay [1] is below 1000 nM; in assay [2] it was 1000 to 10000 nM.

As for `Cc1cc(Cl)ccc1OC(C)(C)C(=O)N[C@H]1[C@@H]2CC3C[C@H]1C[C@](NC(=O)CC(C)C)(C3)C2` [Compound 64], the IC50 in assay [1] was below 1000 nM; in assay [2], 1000 to 10000 nM.

Regarding `CC(C)(Oc1cccc(Br)c1)C(=O)N[C@H]1[C@@H]2CC3C[C@H]1C[C@](N)(C3)C2` [Compound 93], the IC50 in assay [1] was below 1000 nM; in assay [2], above 10000 nM.

As to `Cc1cc(C)cc(OC(C)(C)C(=O)NC2C3CC4CC(C3)CC2C4)c1` (centres unmarked) [Compound 2], the values for the IC50 in assay [1] and in assay [2] were below 1000 nM and above 10000 nM, respectively.

As to `Cc1ccc(OC(C)(C)C(=O)N[C@H]2[C@@H]3CC4C[C@H]2C[C@](OC(=O)Nc2cccc(C)c2)(C4)C3)cc1` [Compound 47], the values for the IC50 in assay [1] and in assay [2] were below 1000 nM and 1000 to 10000 nM, respectively.

Turning to `Cc1cc(C)cc(OC(C)(C)C(=O)N[C@H]2[C@@H]3CC4C[C@H]2C[C@](O)(C4)C3)c1` [Compound 16], the IC50 in assay [1] and in assay [2] was below 1000 nM throughout.

Regarding `O=C(N[C@H]1[C@@H]2CC3C[C@H]1C[C@](O)(C3)C2)[C@@H]1CCc2cc(F)ccc2O1` [Compound 22], the IC50 in assay [1] is below 1000 nM; in assay [2], 1000 to 10000 nM.

Take `CC(=O)N[C@@]12CC3C[C@H](C1)[C@H](NC(=O)C(C)(C)Nc1cccc(C(F)(F)F)c1)[C@@H](C3)C2` [Compound 65]: the figures for the IC50 in assay [1] and in assay [2] were below 1000 nM and above 10000 nM, respectively.

As for `CN(C)c1cccc(OC(C)(C)C(=O)N[C@H]2[C@@H]3CC4C[C@H]2C[C@](O)(C4)C3)c1` [Compound 18], the IC50 in assay [1] and in assay [2] was below 1000 nM throughout.

Take `Cc1ccc(S(=O)(=O)N[C@@]23CC4C[C@H](C2)[C@H](NC(=O)C(C)(C)Oc2ccc(Cl)cc2C)[C@@H](C4)C3)cc1` [Compound 77]: the IC50 in assay [1] is below 1000 nM; in assay [2], above 10000 nM.

In the case of `CC(C)(Oc1ccc(Cl)cc1)C(=O)N[C@H]1[C@@H]2CC3C[C@H]1C[C@](NC(=O)CCl)(C3)C2` [Compound 94], the IC50 in assay [1] was below 1000 nM; in assay [2], 1000 to 10000 nM.

On to `Cc1ccc(OC(C)(C)C(=O)N[C@@H]2[C@@H]3CC4C[C@H]2C[C@](OCc2ccccc2)(C4)C3)cc1` [Compound 48], for which the IC50 in assay [1] and in assay [2] was below 1000 nM throughout.

As to `CC(C)(Oc1cccc(Cl)c1)C(=O)N[C@H]1[C@@H]2CC3C[C@H]1C[C@](O)(C3)C2` [Compound 43], the IC50 in assay [1] and in assay [2] was below 1000 nM each time.

Consider `CC(C)(Oc1cccc(C(F)(F)F)c1)C(=O)N[C@H]1[C@@H]2CC3C[C@H]1C[C@](O)(C3)C2` [Compound 20], for which the IC50 in assay [1] and in assay [2] was below 1000 nM in each case.

Regarding `CC(C)(Oc1cccc(Br)c1)C(=O)N[C@H]1[C@@H]2CC3C[C@H]1C[C@](NC(=O)CCl)(C3)C2` [Compound 90], the IC50 is below 1000 nM in assay [1] and 1000 to 10000 nM in assay [2].

With `Cc1cc(Cl)ccc1OC(C)(C)C(=O)N[C@H]1[C@@H]2CC3C[C@H]1C[C@](N1CCC(C)C1=O)(C3)C2` (some centres unmarked) [Compound 91], the IC50 in assay [1] and in assay [2] was below 1000 nM each time.

Take `O=C(N[C@H]1[C@@H]2CC3C[C@H]1C[C@](O)(C3)C2)c1cc2ccccc2o1` [Compound 23]: the IC50 in assay [1] is below 1000 nM; in assay [2], above 10000 nM.

Consider `CC(C)(Oc1ccccc1)C(=O)N[C@H]1[C@@H]2CC3C[C@H]1C[C@](O)(C3)C2` [Compound 69], for which the IC50 in assay [1] was below 1000 nM; in assay [2], 1000 to 10000 nM.

Turning to `CC(C)(Nc1cccc(C(F)(F)F)c1)C(=O)N[C@H]1[C@@H]2CC3C[C@H]1C[C@](F)(C3)C2` [Compound 61], the IC50 in assay [1] is below 1000 nM; in assay [2] it was above 10000 nM.

On to `CC(=O)N[C@@]12CC3C[C@H](C1)[C@H](NC(=O)C(C)(C)Nc1ccc(Br)cc1C)[C@@H](C3)C2` [Compound 74], for which the results for the IC50 in assay [1] and in assay [2] were below 1000 nM and 1000 to 10000 nM, respectively.

`CC(=O)Nc1cccc(OC(C)(C)C(=O)N[C@H]2[C@@H]3CC4C[C@H]2C[C@](O)(C4)C3)c1` [Compound 19]: the IC50 in assay [1] and in assay [2] was below 1000 nM in each case.

In the case of `CCOC(=O)N[C@@]12CC3C[C@H](C1)[C@H](NC(=O)C(C)(C)Oc1ccc(Cl)cc1C)[C@@H](C3)C2` [Compound 45], the IC50 in assay [1] is below 1000 nM; in assay [2], 1000 to 10000 nM.

On to `Cc1cc(Cl)ccc1OC(C)(C)C(=O)N[C@H]1[C@@H]2CC3C[C@H]1C[C@](NC(=O)CN1CCOCC1)(C3)C2` [Compound 73], for which the IC50 in assay [1] is below 1000 nM; in assay [2], 1000 to 10000 nM.

On to `CN(C)S(=O)(=O)N[C@@]12CC3C[C@H](C1)[C@H](NC(=O)C(C)(C)Oc1cccc(C(F)(F)F)c1)[C@@H](C3)C2` [Compound 92], for which the values for the IC50 in assay [1] and in assay [2] were below 1000 nM and 1000 to 10000 nM, respectively.

For `CCS(=O)(=O)N[C@@]12CC3C[C@H](C1)[C@H](NC(=O)C(C)(C)Oc1cccc(C(F)(F)F)c1)[C@@H](C3)C2` [Compound 87], the IC50 is below 1000 nM in assay [1] and 1000 to 10000 nM in assay [2].

With `O=C(N[C@H]1[C@@H]2CC3C[C@H]1C[C@](O)(C3)C2)C1CCc2ccccc2O1` (some centres unmarked) [Compound 26], the IC50 in assay [1] and in assay [2] was below 1000 nM each time.

For the compound `Cc1ccc2c(c1)NCC(C(=O)N[C@H]1[C@@H]3CC4C[C@H]1C[C@](O)(C4)C3)O2` (some centres unmarked) [Compound 11], the IC50 in assay [1] is below 1000 nM; in assay [2], 1000 to 10000 nM.
